The experiment concerns the target T1, Human M4 (Homo sapiens, UniProt P08173).
T1 construct: expressed in transfected cells; host or cells: CHO-K1 (ATCC), stably co-expressing chimeric G protein Gqi5
T1 sequence (P08173 1-479): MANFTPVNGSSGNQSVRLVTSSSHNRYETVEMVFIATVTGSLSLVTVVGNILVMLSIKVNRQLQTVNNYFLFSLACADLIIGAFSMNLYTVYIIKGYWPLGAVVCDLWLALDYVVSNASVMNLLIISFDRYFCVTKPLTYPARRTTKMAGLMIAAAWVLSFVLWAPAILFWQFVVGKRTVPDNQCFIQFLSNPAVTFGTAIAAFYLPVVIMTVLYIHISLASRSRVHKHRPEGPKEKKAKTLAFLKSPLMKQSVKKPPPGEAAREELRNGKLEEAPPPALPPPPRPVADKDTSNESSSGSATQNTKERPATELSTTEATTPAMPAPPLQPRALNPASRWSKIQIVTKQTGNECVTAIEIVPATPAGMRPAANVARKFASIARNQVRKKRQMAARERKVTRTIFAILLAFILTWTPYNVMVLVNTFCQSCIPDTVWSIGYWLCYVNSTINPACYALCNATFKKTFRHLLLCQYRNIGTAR
Kind of experiment: mAChR M4 cell-based functional assay (calcium flux, antagonist mode). To be noted: for remaining activity at 30 µM: % ACh maximum at 30 μM, read-out: Emin; for IC50: M4/Gqi5/CHO-K1 cells, concentration-dependent decrease of the EC80 acetylcholine response. The protocol: Human or rat M4 cDNA, along with the chimeric G protein Gqi5, were transfected into Chinese hamster ovary (CHO-K1) cells purchased from the American Type Culture Collection using Lipofectamine2000. M4/Gqi5/CHO cells were grown in Ham's F-12 medium containing 10% heat-inactivated fetal bovine serum (FBS), 20 mM HEPES, 500 μg/mL G418 sulfate, and 200 μg/mL Hygromycin B.
For high throughput measurement of agonist-evoked increases in intracellular calcium, CHO-K1 cells stably expressing muscarinic receptors were plated in growth medium lacking G418 and hygromycin at 15,000 cells/20 μL/well in Greiner 384-well black-walled, tissue culture (TC)-treated, clear-bottom plates (VWR). Cells were incubated overnight at 37° C. and 5% CO2. The next day, cells were washed using an ELX 405 (BioTek) with assay buffer; the final volume was then aspirated to 20 μL, Next, 20 μL of a 2.3 μM stock of Fluo-4/acetoxymethyl ester (Invitrogen, Carlsbad, Calif.), prepared as a 2.3 μM stock in DMSO, mixed in a 1:1 ratio with 10% (w/v) Pluronic F-127 and diluted in assay buffer, was added to the wells and the cell plates were incubated for 50 min at 37° C. and 5% CO2. Dye was removed by washing with the ELX 405 and the final volume was aspirated to […]. Compound master plates were formatted in a 10 point concentration-response curve (CRC) format (1:3 dilutions) in 100% DMSO with a starting concentration of 10 or 1 mM using a BRAVO liquid handler (Agilent). Test compound CRCs were then transferred to daughter plates (240 nL) using the Echo acoustic plate reformatter (Labcyte, Sunnyvale, Calif.) and then diluted into assay buffer (40 μL) to a 2× stock using a Thermo Fisher Combi (Thermo Fisher Scientific, Waltham, Mass.).
Calcium flux was measured using the Functional Drug Screening System (FDSS) 6000 or 7000 (Hamamatsu Corporation, Tokyo, Japan) as an increase in the fluorescent static ratio. Compounds were applied to cells (20 μL, 2×) using the automated system of the FDSS at 2 seconds into the protocol and the data were collected at 1 Hz. At 143 s, 10 μL of an EC20 concentration of the muscarinic receptor agonist acetylcholine was added (5×), followed by the addition of 12 μL of an EC80 concentration of acetylcholine at the 268 s time point (5×). Agonist activity was analyzed as a concentration-dependent increase in calcium mobilization upon compound addition. Positive allosteric modulator activity was analyzed as a concentration-dependent increase in the EC20 acetylcholine response. Antagonist activity was analyzed as a concentration-dependent decrease in the EC80 acetylcholine response; for the purposes of the tables herein, an […] (inhibitory concentration 50) was calculated as a concentration-dependent decrease of the response elicited by an EC80 concentration of acetylcholine. Concentration-response curves were generated using a four-parameter logistical equation in XLFit curve fitting software (IDBS, Bridgewater, N.J.) for Excel (Microsoft, Redmond, Wash.) or Prism (GraphPad Software, Inc., San Diego, Calif.) or the Dotmatics software platform (Dotmatics, Bishop's Stortford, UK).
Compounds were synthesized as described above. Activity (IC50 and Emin) was determined in the mAChR M4 cell-based functional assay as described above and the data are shown in Table 4.

Results on 21 molecules are retold here after patent US11149022B2, “Antagonists of the muscarinic acetylcholine receptor M4” (Vanderbilt University, priority 2017, dated 2021).

With `Cc1cnn(C)c1-c1ccc(NC2CC3(CCN(CC4CCSCC4)CC3)C2)nn1` [Compound 11, N-[6-(2,4-dimethylpyrazol-3-yl)pyridazin-3-yl]-7-(tetrahydrothiopyran-4-ylmethyl)-7-azaspiro[3.5]nonan-2-amine], the remaining activity at 30 µM is 3.95% and the IC50 (as a rule, the concentration that gives 50% inhibition) was 210 nM. The corresponding values for `CC(C)(C)CCN1CCC2(CC1)CC(Oc1ccc(-c3cc(F)ccc3Cl)nn1)C2` [Compound 15, 2-[6-(2-Chloro-5-fluoro-phenyl)pyridazin-3-yl]oxy-7-(3,3-dimethylbutyl)-7-azaspiro[3.5]nonane] are 3.01% and 330 nM.

Regarding `Fc1ccc(Cl)c(-c2ccc(NCC3CC4(CCN(Cc5ccccc5)CC4)C3)nn2)c1` [Compound 45, N-[(7-benzyl-7-azaspiro[3.5]nonan-2-yl)methyl]-6-(2-chloro-5-fluoro-phenyl)pyridazin-3-amine], the remaining activity at 30 µM stood at 5.72% and the IC50 was 1340 nM. On the same counts, the results for `Cc1nn(C)cc1-c1ccc(NCC2CC3(CCN(CC4CC5C=CC4C5)CC3)C2)nn1` (centres unmarked) [Compound 59, N-[[7-(5-bicyclo[2.2.1]hept-2-enylmethyl)-7-azaspiro[3.5]nonan-2-yl]methyl]-6-(1,3-dimethylpyrazol-4-yl)pyridazin-3-amine] are 5.41% and 180 nM. The corresponding values for `Cc1nn(C)cc1-c1ccc(OC2CC3(CCN(CC4CCCCC4)CC3)C2)nn1` [Compound 26, 7-(cyclohexylmethyl)-2-[6-(1,3-dimethylpyrazol-4-yl)pyridazin-3-yl]oxy-7-azaspiro[3.5]nonane] are 4.43% and 630 nM. The corresponding values for `Cc1cnn(C)c1-c1ccc(OC2CC3(CCN(CC4CCOCC4)CC3)C2)nn1` [Compound 35, 2-[6-(2,4-dimethylpyrazol-3-yl)pyridazin-3-yl]oxy-7-(tetrahydropyran-4-ylmethyl)-7-azaspiro[3.5]nonane] are 17.8% and 6370 nM. With `Fc1ccc(Cl)c(-c2ccc(OCC3CC4(CCN(CC5CCCCC5)CC4)C3)nn2)c1` [Compound 62, 2-[[6-(2-chloro-5-fluoro-phenyl)pyridazin-3-yl]oxymethyl]-7-(cyclohexylmethyl)-7-azaspiro[3.5]nonane], the remaining activity at 30 µM worked out at 6.14% and the IC50 was 1490 nM.

Take `Cc1nn(C)cc1-c1ccc(OC2CC3(CCN(CC4CCCOC4)CC3)C2)nn1` (centres unmarked) [Compound 28, 2-[6-(1,3-dimethylpyrazol-4-yl)pyridazin-3-yl]oxy-7-(tetrahydropyran-3-ylmethyl)-7-azaspiro[3.5]nonane]: the remaining activity at 30 µM came to 17.1% and the IC50 was 5810 nM.

Turning to `Fc1ccc(Cl)c(-c2ccc(NCC3CC4(CCN(Cc5ccccc5F)CC4)C3)nn2)c1` [Compound 46, 6-(2-chloro-5-fluoro-phenyl)-N-[[7-[(2-fluorophenyl)methyl]-7-azaspiro[3.5]nonan-2-yl]methyl]pyridazin-3-amine], the remaining activity at 30 µM amounted to 9.19% and the IC50 was found to be 780 nM. On the same counts, the results for `Cc1cnn(C)c1-c1ccc(OC2CC3(CCN(CC4CC5C=CC4C5)CC3)C2)nn1` (centres unmarked) [Compound 32, 7-(5-bicyclo[2.2.1]hept-2-enylmethyl)-2-[6-(2,4-dimethylpyrazol-3-yl)pyridazin-3-yl]oxy-7-azaspiro[3.5]nonane] are 3.96% and 160 nM. As to `Cc1nn(C)cc1-c1ccc(OC2CC3(CCN(CC4CC5C=CC4C5)CC3)C2)nn1` (centres unmarked) [Compound 24, 7-(5-bicyclo[2,2.1]hept-2-enylmethyl)-2-[6-(1,3-dimethylpyrazol-4-yl)pyridazin-3-yl]oxy-7-azaspiro[3.5]nonane], the remaining activity at 30 µM was found to be 2.76% and the IC50 was 110 nM. `Cc1cccnc1CN1CCC2(CC1)CC(Nc1ccc(-c3c(C)cnn3C)nn1)C2` [Compound 12, N-[6-(2,4-dimethylpyrazol-3-yl)pyridazin-3-yl]-7-[(3-methyl-2-pyridyl)methyl]-7-azaspiro[3.5]nonan-2-amine]: the remaining activity at 30 µM came to 6.85% and the IC50 was 1120 nM. The corresponding values for `Cc1cnn(C)c1-c1ccc(OC2CC3(CCN(Cc4ccccc4)CC3)C2)nn1` [Compound 37, 7-benzyl-2-[6-(2,4-dimethylpyrazol-3-yl)pyridazin-3-yl]oxy-7-azaspiro[3.5]nonane] are 10.8% and 3450 nM.

On to `Cc1cccnc1CN1CCC2(CC1)CC(CNc1ccc(-c3cn(C)nc3C)nn1)C2` [Compound 56, 6-(1,3-dimethylpyrazol-4-yl)-N-[[7-[(3-methyl-2-pyridyl)methyl]-7-azaspiro[3.5]nonan-2-yl]methyl]pyridazin-3-amine], for which the remaining activity at 30 µM is 19.4% and the IC50 was 3940 nM.

Turning to `Cc1nn(C)cc1-c1ccc(NC2CC3(CCN(CCC(C)(C)C)CC3)C2)nn1` [Compound 1, 7-(3,3-Dimethylbutyl)-N-[6-(1,3-dimethylpyrazol-4-yl)pyridazin-3-yl]-7-azaspiro[3.5]nonan-2-amine], the remaining activity at 30 µM is 3.48%. On to `CC(C)(C)CCN1CCC2(CC1)CC(COc1ccc(-c3cc(F)ccc3Cl)nn1)C2` [Compound 60, 2-[[6-(2-Chloro-5-fluoro-phenyl)pyridazin-3-yl]oxymethyl]-7-(3,3-dimethylbutyl)-7-azaspiro[3.5]nonane], for which the remaining activity at 30 µM turned out to be 3.47% and the IC50 stood at 300 nM. On the same counts, the results for `Cc1cccnc1CN1CCC2(CC1)CC(Oc1ccc(-c3cn(C)nc3C)nn1)C2` [Compound 31, 2-[6-(1,3-dimethylpyrazol-4-yl)pyridazin-3-yl]oxy-7-[(3-methyl-2-pyridyl)methyl]-7-azaspiro[3.5]nonane] are 8.05% and 2670 nM. The corresponding values for `Cc1nn(C)cc1-c1ccc(NCC2CC3(CCN(Cc4ccc(F)cc4)CC3)C2)nn1` [Compound 58, 6-(1,3-dimethylpyrazol-4-yl)-N-[[7-[(4-fluorophenyl)methyl]-7-azaspiro[3.5]nonan-2-yl]methyl]pyridazin-3-amine] are 11.8% and 5100 nM. The corresponding values for `Cc1nn(C)cc1-c1ccc(NCC2CC3(CCN(CC45CC6CC(CC(C6)C4)C5)CC3)C2)nn1` [Compound 57, N-[[7-(1-adamantylmethyl)-7-azaspiro[3.5]nonan-2-yl]methyl]-6-(1,3-dimethylpyrazol-4-yl)pyridazin-3-amine] are 3.64% and 300 nM. Take `Cc1nn(C)cc1-c1ccc(NCC2CC3(CCN(Cc4ccccn4)CC3)C2)nn1` [Compound 55, 6-(1,3-dimethylpyrazol-4-yl)-N-[[7-(2-pyridylmethyl)-7-azaspiro[3.5]nonan-2-yl]methyl]pyridazin-3-amine]: the remaining activity at 30 µM is 34.3% and the IC50 was more than 10000 nM.

`Cc1cccnc1CN1CCC2(CC1)CC(Nc1ccc(-c3cn(C)nc3C)nn1)C2` [Compound 7, N-[6-(1,3-dimethyipyrazol-4-yl)pyridazin-3-yl]-7-[(3-methyl-2-pyridyl)methyl]-7-azaspiro[3.5]nonan-2-amine]: the remaining activity at 30 µM came to 9.14% and the IC50 came out at 1740 nM.
